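48-hour exposure; five concentrations; linearly interpolated endpoints. At the GI50, growth is halved. TGI is the concentration that stops growth completely.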
Columns and labels:
Assay in all cases: NCI tumour cell line growth inhibition, 48 h
NCI-H460 lung = tested on: NCI-H460 lung
NCI-H226 lung = tested on: NCI-H226 lung
SK-MEL-2 melanoma = tested on: SK-MEL-2 melanoma
DLD-1 colon = tested on: DLD-1 colon
OVCAR-5 ovarian = tested on: OVCAR-5 ovarian
HL-60(TB) leukemia = tested on: HL-60(TB) leukemia
DMS 273 small cell lung = tested on: DMS 273 small cell lung
HCT-15 colon = tested on: HCT-15 colon
OVCAR-4 ovarian = tested on: OVCAR-4 ovarian
ACHN renal = tested on: ACHN renal
M19-MEL melanoma = tested on: M19-MEL melanoma
HS 578T breast = tested on: HS 578T breast

| Structure (SMILES) | TGI (NCI-H460 lung) [µM] | TGI (NCI-H226 lung) [µM] | TGI (SK-MEL-2 melanoma) [µM] | TGI (DLD-1 colon) [µM] | TGI (OVCAR-5 ovarian) [µM] | TGI (HL-60(TB) leukemia) [µM] | TGI (DMS 273 small cell lung) [µM] | TGI (HCT-15 colon) [µM] | TGI (OVCAR-4 ovarian) [µM] | TGI (ACHN renal) [µM] | TGI (M19-MEL melanoma) [µM] | TGI (HS 578T breast) [µM] | GI50 (HS 578T breast) [µM] | GI50 (NCI-H460 lung) [µM] | GI50 (NCI-H226 lung) [µM] | GI50 (SK-MEL-2 melanoma) [µM] | GI50 (HL-60(TB) leukemia) [µM] | GI50 (HCT-15 colon) [µM] | GI50 (OVCAR-4 ovarian) [µM] | GI50 (ACHN renal) [µM] |
| --- | --- | --- | --- | --- | --- | --- | --- | --- | --- | --- | --- | --- | --- | --- | --- | --- | --- | --- | --- | --- |
| CCCC(=O)OCC(O)CO (stereo not given) | > 5000 | > 5000 | > 5000 | > 5000 | 4700 | > 5000 | > 5000 | > 5000 | > 5000 | > 5000 | > 5000 |  |  |  |  |  |  |  |  |  |
| C[C@H](O)C(=O)SC[C@H](NC(=O)CC[C@@H](N)C(=O)O)C(=O)NCC(=O)O | > 100 | > 100 | > 100 | > 100 | > 100 |  | > 100 | > 100 | > 100 | > 100 | > 100 |  |  |  |  |  |  |  |  |  |
| Cc1ccc(S(=O)(=O)NCCSS(=O)(=O)c2ccc(C)cc2)cc1 | > 100 | 49.6 |  |  |  |  |  | 37.8 | > 100 | > 100 |  | > 100 |  |  |  |  |  |  |  |  |
| Oc1ccc2ccccc2c1Cc1c(O)ccc2ccccc12 | > 100 | 45.5 | 41.7 |  | 33.2 | 38.7 |  | 32.7 | 30.6 | 33.8 |  | 34.4 |  |  |  |  |  |  |  |  |
| O=C(/N=C/c1c(O)c2ccccc2oc1=O)NC1CCCCC1 | > 100 | > 100 | > 100 |  | > 100 | > 100 | > 100 | > 100 | > 100 | > 100 | > 100 |  |  |  |  |  |  |  |  |  |
| COc1c2ccoc2c(S(=O)(=O)Nc2ccc(Cl)cc2)c2oc(C)cc(=O)c12 | > 100 | > 100 | > 100 | > 100 | > 100 | > 31.6 | > 100 | > 100 | > 67.2 |  | > 100 |  |  |  |  |  |  |  |  |  |
| Cc1cc(-c2nc3cc(F)ccc3s2)ccc1NC(=O)C(C)N (stereo not given) | 5.98 | > 25 | 7.87 |  | 5.52 | 1.34 |  | 6.67 | 8.18 | 7.83 |  | 10 |  |  |  |  |  |  |  |  |
| CN(C)CCC(C(=O)C(C)(C)C)c1ccccn1 (stereo not given) | > 100 | > 100 | > 100 |  | > 100 | > 100 |  | > 100 | > 100 | > 100 |  | > 100 |  |  |  |  |  |  |  |  |
| CC(O)=NC(Cc1ccc2ccccc2c1)C(O)=NC(Cc1ccc(Cl)cc1)C(O)=NC(Cc1c[nH]c2ccccc12)C(O)=NC(CO)C(O)=NC(Cc1ccc(O)cc1)C(O)=NC(CCCN=C(N)N)C(O)=NC(CC(C)C)C(O)=NC(CCCN=C(N)N)C(=O)N1CCCC1C(O)=NC(C)C(=N)O (stereo not given) | > 100 | 80.7 | 90.9 |  | > 100 | > 100 |  | > 100 | > 100 | > 100 |  | > 100 |  |  |  |  |  |  |  |  |
| CCCCOc1ccc(S(=O)(=O)/N=C(\NN)Nc2ccc(Cl)cc2)cc1 | 31.9 | > 100 | > 100 |  | 52.9 | > 100 |  | > 100 | 45.3 | > 100 |  |  |  |  |  |  |  |  |  |  |
| CO[C@]12C[C@H](CNC(=O)c3cc(Br)c(Br)[nH]3)O[C@H]1NC(=O)N2 | > 100 | > 100 | > 100 |  | > 100 | > 100 |  | > 100 | > 100 | > 100 |  | > 100 |  |  |  |  |  |  |  |  |
| CCOC(=O)[C@H]1C[C@]23CN(C(=O)OC(C)(C)C)CC[C@H]2CCC2(SCCCS2)[C@@H]3N1C | > 100 | > 100 | 63.3 |  | > 100 | 47.3 |  | > 100 | 74.2 | > 100 |  | > 100 |  |  |  |  |  |  |  |  |
| NC1=NS(=O)(=O)Nc2nc(-c3cccs3)[nH]c21 | > 100 |  | > 100 | > 100 | > 100 | > 100 | > 100 | > 100 | > 100 | > 100 | > 100 |  |  |  |  |  |  |  |  |  |
| NCCc1ccc2c(c1)C(=O)c1c(O)ccc(O)c1C2=O | > 87.6 | > 100 | > 100 |  | > 87 | 5.34 |  | > 100 | > 100 | > 53.6 |  | > 100 |  |  |  |  |  |  |  |  |
| OC1(c2ccc3ccccc3c2)c2ccc3ccccc3c2C2=NCCN21 (stereo not given) | > 100 |  | > 100 |  | > 100 | > 100 |  | > 100 | 85.8 | > 100 |  | 53 |  |  |  |  |  |  |  |  |
| O=C1N[C@@H]2c3c(Br)sc(Br)c3C(=O)[C@@H]2N1 | 18.3 | 91.2 | 13.7 |  | 35.1 | 5.36 |  | 11.1 | 16.8 | 14.1 |  | 37 |  |  |  |  |  |  |  |  |
| COc1ccc2c(c1)CC[C@@H]1[C@@H]2CC[C@]2(C)[C@@H](O)/C(=C/c3ccncc3)C[C@@H]12 | 27.3 | 44.7 | 31.1 |  | 30.7 | 39.2 |  | 23.6 | > 100 | 67.2 |  | 32 |  |  |  |  |  |  |  |  |

| Structure (SMILES) | TGI (NCI-H460 lung) [µM] | TGI (NCI-H226 lung) [µM] | TGI (SK-MEL-2 melanoma) [µM] | TGI (DLD-1 colon) [µM] | TGI (OVCAR-5 ovarian) [µM] | TGI (HL-60(TB) leukemia) [µM] | TGI (DMS 273 small cell lung) [µM] | TGI (HCT-15 colon) [µM] | TGI (OVCAR-4 ovarian) [µM] | TGI (ACHN renal) [µM] | TGI (M19-MEL melanoma) [µM] | TGI (HS 578T breast) [µM] | GI50 (HS 578T breast) [µM] | GI50 (NCI-H460 lung) [µM] | GI50 (NCI-H226 lung) [µM] | GI50 (SK-MEL-2 melanoma) [µM] | GI50 (HL-60(TB) leukemia) [µM] | GI50 (HCT-15 colon) [µM] | GI50 (OVCAR-4 ovarian) [µM] | GI50 (ACHN renal) [µM] |
| --- | --- | --- | --- | --- | --- | --- | --- | --- | --- | --- | --- | --- | --- | --- | --- | --- | --- | --- | --- | --- |
| COc1cc(NCc2ccc3n2-c2ccccc2OC3)cc(OC)c1OC | > 100 | > 100 | 69.2 |  | > 100 | 57.2 |  | > 100 | 55.5 | > 100 |  | > 100 |  |  |  |  |  |  |  |  |
| CC[N+](CC)(CC)/C(=N/S(=O)(=O)c1cc(C)c(Cl)cc1S)[N-]S(=O)(=O)c1ccc(Cl)cc1 | > 100 | > 100 | > 100 |  | > 100 | > 100 |  | > 100 | > 100 | > 100 |  | > 100 |  |  |  |  |  |  |  |  |
| C=CCC1=CC2(OC)C(=O)C(OC)(OC)C1C1C(OC)(OC)C(=O)C(OC)=CC12CC=C (stereo not given) | > 100 |  | > 100 |  | > 100 | > 100 |  | > 100 | > 100 | > 100 |  | > 100 |  |  |  |  |  |  |  |  |
| CCOC(=O)c1c(N2CCOCC2)[nH]c(=O)c(C(c2ccc(Cl)c([N+](=O)[O-])c2)c2c(O)c(C(=O)OCC)c(N3CCOCC3)[nH]c2=O)c1O | > 100 | > 100 |  |  | > 100 |  |  | > 100 | > 100 | > 100 |  | > 100 |  |  |  |  |  |  |  |  |
| NC(N)=N/N=C/c1ccc(O)c(C(=O)O)c1 | > 100 | > 100 | > 100 |  | > 100 |  |  | > 100 | > 100 | > 100 |  | > 100 |  |  |  |  |  |  |  |  |
| CCOc1ccc2c(c1)NC(=O)C(C1OC(c3ccccc3)=CC1=O)S2 (stereo not given) | 39 | 67.5 | > 100 |  | 36.5 | > 100 |  | 69.2 |  | > 100 |  | 86 |  |  |  |  |  |  |  |  |
| CCCc1ccc(OCC(=O)N/N=C/c2c(-c3ccccc3)[nH]c3ccccc23)cc1 | 22.7 | 40.5 | 15.3 |  | 58.6 | 23.8 |  | 59.8 | 42.7 | > 100 |  | > 100 |  |  |  |  |  |  |  |  |
| O=C(CCO)OCCCCCC/C=C\CCCCCC/C=C\CCCCCCCCOC(=O)CCO | 31.4 |  | 31 |  | 32.3 | 32.1 |  | 29.1 | 55.9 | 64.3 |  |  |  |  |  |  |  |  |  |  |
| C[C@]12CC[C@H](O)CC1=CC[C@@H]1[C@@H]2CC[C@]2(C)C(=O)CC[C@@H]12 |  | > 100 | > 100 |  | > 100 |  |  | > 100 | > 100 | > 100 |  | 97.9 |  |  |  |  |  |  |  |  |
| Cc1cc(=O)[nH]c2c3c(ccc12)OC(C)(C)C=C3 | > 100 | > 33.6 | > 100 |  | > 66.1 | > 100 |  | > 100 | > 100 | > 100 |  | 32.8 |  |  |  |  |  |  |  |  |
| CC(C)(C)c1cc(C(C)(C)C)c2sc(=S)oc2c1O | 18.2 | 34.2 | 24.3 |  | 20.2 | 33 |  | 17.8 | 26.2 | 20.8 |  | 20.4 |  |  |  |  |  |  |  |  |
| FC(F)(F)C1=NC(=NNc2nnc(-c3ccccc3)c(-c3ccccc3)n2)N=C(C(F)(F)F)C1 | > 100 | > 100 | > 100 | > 100 | > 100 | 37.1 | > 100 | > 100 | > 100 |  | > 68.4 |  |  |  |  |  |  |  |  |  |
| O=c1cc(-c2nc3ccccc3[nH]2)[nH]c2nc(-c3nc4ccccc4[nH]3)cc(-c3ccc(Cl)cc3)c12 | 43.6 | 49.2 | 30.5 |  | 54.3 | 66.3 |  | 25.5 | 95.4 | 41.6 |  | > 100 |  |  |  |  |  |  |  |  |
| COc1ccc(-n2cc(-c3ccc(OC)c(OC)c3)nc2SCc2ccccc2)cc1Cl | > 100 | > 100 | 56.3 |  |  | 37.7 |  | > 100 | > 100 | > 100 |  | > 100 | 25.3 | 25.5 | 40.4 | 16.3 | 12.9 | 20 | 20.1 | 38.9 |
| Cc1onc(-c2c(F)cccc2Cl)c1C(=O)N[C@@H]1C(=O)N2[C@@H]1SC(C)(C)[C@@H]2C(=O)O | > 100 | > 100 | > 100 |  | > 100 |  |  | > 100 | > 100 | > 100 |  | > 100 |  |  |  |  |  |  |  |  |
| O=C(Nc1ccc(F)cc1)c1cc2ccc(O)cc2oc1=Nc1ccccc1F | > 100 |  | > 100 |  | > 100 | 69.5 |  | 59 | > 100 | > 100 |  | > 100 |  |  |  |  |  |  |  |  |

Reference: PubChem BioAssay (NCI)
